What all share (type): cell-based
The test system of assay [1] is von Hippel-Lindau disease tumor suppressor/GTPase KRas (Homo sapiens), P01116+P40337 [G12D]. The assay can be described thus: PROTAC activity at VHL/HiBit-tagged KRAS G12D mutant (unknown origin) in human GP5d cells assessed as induction of KRAS G12D protein degradation incubated for 18 hrs by Nano-Gio HiBiT assay relative control. A general note: The HiBiT peptide binds its large partner to form an active luciferase.

Assay [2] has as its target T1, von Hippel-Lindau disease tumor suppressor/GTPase KRas (Homo sapiens, UniProt P01116+P40337, G12D). The assay can be described thus: PROTAC activity at VHL/N-terminal HiBit-tagged KRAS G12D mutant (unknown origin) in human GP5d cells assessed as induction of KRAS G12D protein degradation incubated for 18 hrs by Nano-Gio HiBiT assay.
Assay [3] has as its target T1, von Hippel-Lindau disease tumor suppressor/GTPase KRas. The assay is described as follows: PROTAC activity at E3 ubiquitin ligase/N-terminal HiBit-tagged KRAS G12D mutant (unknown origin) in human GP5d cells assessed as induction of KRAS G12D protein degradation incubated for 18 hrs by Nano-Gio HiBiT assay.
Assay [4] relates to von Hippel-Lindau disease tumor suppressor/GTPase KRas (Homo sapiens), P01116+P40337 [G12D]. The assay can be described thus: PROTAC activity at E3 ubiquitin ligase/N-terminal HiBit-tagged KRAS G12D mutant (unknown origin) in human GP5d cells assessed as induction of KRAS G12D protein degradation incubated for 18 hrs by Nano-Gio HiBiT assay relative to control.

What is called Emax is the maximal effect, on the per cent scale that the assay sets. Broadly, the DC50 is the concentration giving 50% degradation.

T1 sequence (P01116 whole entry G12D, stated change not applied): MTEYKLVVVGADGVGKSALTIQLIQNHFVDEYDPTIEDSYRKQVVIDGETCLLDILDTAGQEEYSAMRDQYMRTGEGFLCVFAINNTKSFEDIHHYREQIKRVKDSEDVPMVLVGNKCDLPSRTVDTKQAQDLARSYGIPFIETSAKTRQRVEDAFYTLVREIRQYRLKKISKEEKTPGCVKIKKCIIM
T1 sequence (P40337 whole entry, stated change not applied): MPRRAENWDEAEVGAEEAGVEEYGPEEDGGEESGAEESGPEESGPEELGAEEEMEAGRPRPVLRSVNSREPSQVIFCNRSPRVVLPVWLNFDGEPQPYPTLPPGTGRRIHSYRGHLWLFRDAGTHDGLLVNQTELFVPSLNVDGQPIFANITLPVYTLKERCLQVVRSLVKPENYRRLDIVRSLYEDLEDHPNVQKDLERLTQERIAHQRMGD
Sequence of von Hippel-Lindau disease tumor suppressor/GTPase KRas (Homo sapiens), P01116+P40337 [G12D] (P01116 whole entry G12D): as the sequence (P01116 whole entry G12D, stated change not applied) above
Sequence of von Hippel-Lindau disease tumor suppressor/GTPase KRas (Homo sapiens), P01116+P40337 [G12D] (P40337 whole entry partner): as the sequence (P40337 whole entry, stated change not applied) above

`Cc1ncsc1-c1ccc(CNC(=O)[C@@H]2C[C@@H](O)CN2C(=O)C(c2cc(OCCCCN3CCCN(c4nccc(-c5noc([C@@]6(C)CCCc7sc(N)c(C#N)c76)n5)n4)[C@@H](C)C3)no2)C(C)C)cc1F` (some centres undefined): in assay [1], the Emax stood at 92%. In assay [2], the half-maximal degradation concentration (DC50) is 6.5 nM.

For `Cc1ncsc1-c1ccc(CNC(=O)[C@@H]2C[C@@H](O)CN2C(=O)C(c2cc(OCCCCN3CCCN(c4nccc(-c5noc([C@@]6(C)CCCc7sc(N)c(C#N)c76)n5)n4)[C@@H](C)C3)no2)C(C)C)cc1` (some centres undefined), in assay [1], the maximal response (Emax) was found to be 91%. Also, the DC50 in assay [2] was 2.7 nM.

Turning to `Cc1ncsc1-c1ccc(CNC(=O)[C@@H]2C[C@@H](O)CN2C(=O)C(c2cc(OCCCCN3CCCN(c4nccc(-c5cc([C@@]6(C)CCCc7sc(N)c(C#N)c76)on5)n4)[C@@H](C)C3)no2)C(C)C)cc1` (some centres undefined), in assay [1], the Emax turned out to be 94%. Further, the 50% degradation concentration (DC50) in assay [2] amounted to 4.3 nM.

As for `Cc1ncsc1-c1ccc(CNC(=O)[C@@H]2C[C@@H](O)CN2C(=O)C(c2cc(OCCCN3CCCN(c4nccc(-c5noc([C@@]6(C)CCCc7sc(N)c(C#N)c76)n5)n4)[C@@H](C)C3)no2)C(C)C)cc1` (some centres undefined), the Emax in assay [1] amounted to 94%. In addition, the DC50 in assay [2] amounted to 6.4 nM.

For `Cc1ncsc1-c1ccc([C@@H](NC(=O)[C@H]2C[C@H](O)CN2C(=O)[C@@H](C(C)C)n2cc(OCCCN3CCCN(c4nccc(-c5noc([C@@]6(C)CCCc7sc(N)c(C#N)c76)n5)n4)[C@@H](C)C3)nn2)[C@@H](O)C(C)C)cc1`, in assay [1], the maximal response (Emax) was found to be 93%. Besides, the DC50 in assay [2] was 1.2 nM.

In the case of `Cc1ncsc1-c1ccc([C@H](NC(=O)[C@@H]2C[C@@H](O)CN2C(=O)[C@H](C(C)C)n2cc(OCCCCN3CCCN(c4nccc(-c5noc([C@@]6(C)CCCc7sc(N)c(C#N)c76)n5)n4)[C@@H](C)C3)nn2)[C@H](C)O)cc1` (single isomer, unassigned), the maximum response (Emax) in assay [1] worked out at 94%. Also, the DC50 in assay [2] stood at 1.6 nM.

`Cc1ncsc1-c1ccc(CNC(=O)[C@@H]2C[C@@H](O)CN2C(=O)C(c2cc(OCCCCN3CCCN(c4nccc(-c5cc([C@@]6(C)CCCc7sc(N)c(C#N)c76)no5)n4)[C@@H](C)C3)no2)C(C)C)cc1` (single isomer, unassigned): the Emax in assay [1] is 92%. Also, in assay [2], the half-maximal degradation concentration (DC50) was 8.9 nM.

As to `CC(C)C(C(=O)N1C[C@H](O)C[C@H]1C(=O)NCc1ccc(-n2ccnc2)cc1)c1cc(OCCCCN2CCCN(c3nccc(-c4noc([C@@]5(C)CCCc6sc(N)c(C#N)c65)n4)n3)[C@@H](C)C2)no1` (single isomer, unassigned), in assay [3], the DC50 is 6.7 nM. The maximum response (Emax) in assay [4] was determined as 93%.

In the case of `CC(C)C(C(=O)N1C[C@H](O)C[C@H]1C(=O)NCc1ccc(C#N)cc1)c1cc(OCCCCN2CCCN(c3nccc(-c4noc([C@@]5(C)CCCc6sc(N)c(C#N)c65)n4)n3)[C@@H](C)C2)no1` (single isomer, unassigned), the DC50 in assay [3] was 3.9 nM. Moreover, the Emax in assay [4] was 91%.

As to `Cc1ncsc1-c1ccc([C@H](CO)NC(=O)[C@@H]2C[C@@H](O)CN2C(=O)[C@H](C(C)C)n2cc(OCCCC(C)N3CCCN(c4nccc(-c5noc([C@@]6(C)CCCc7sc(N)c(C#N)c76)n5)n4)[C@@H](C)C3)nn2)cc1` (single isomer, unassigned), in assay [1], the Emax was found to be 94%. In addition, the half-maximal degradation concentration (DC50) in assay [2] worked out at 1.4 nM.

Regarding `Cc1ncsc1-c1ccc([C@H](C)NC(=O)[C@@H]2C[C@@H](O)CN2C(=O)C(C(C)C)n2cc(OCCCCN3CCCN(c4nccc(-c5noc([C@@]6(C)CCCc7sc(N)c(C#N)c76)n5)n4)[C@@H](C)C3)nn2)cc1` (single isomer, unassigned), the Emax in assay [1] came out at 93%. In addition, in assay [2], the 50% degradation concentration (DC50) amounted to 1.5 nM.

For the molecule `CC(C)C(C(=O)N1C[C@H](O)C[C@H]1C(=O)NCc1ccc(-n2cncn2)cc1)c1cc(OCCCCN2CCCN(c3nccc(-c4noc([C@@]5(C)CCCc6sc(N)c(C#N)c65)n4)n3)[C@@H](C)C2)no1` (single isomer, unassigned), in assay [3], the DC50 was found to be 3.3 nM. Also, the Emax in assay [4] came to 93%.

Values taken from ChEMBL document CHEMBL5370676, “KRAS-Degrading Compounds: A Novel Approach to Treat Cancer by Targeting Both Wild-Type and Mutated KRAS Forms” (ACS Med Chem Lett, 2023).
